Measured values published in patent US20070059272A1 (priority 2005, published 2007).

Columns and labels:
[1] = tested on: membrane fractions of P. aeruginosa (PAO1); test: ELISA binding to membrane fractions and solubilized membrane proteins of P. aeruginosa PAO1; set-up: species or system Pseudomonas aeruginosa
[2] = tested on: C4-HSL synthesis in PAO1; test: C4-HSL in PAO1 supernatant by luminescence reporter strain pSB536; format: cell-based, Pseudomonas aeruginosa; details: PAO1, 100 ng/ml IFN-γ, bacterial supernatants
[3] = tested on: Caco-2 cells; test: TEER of Caco-2 monolayers inoculated with PA27853 with and without IFN-γ; format: cell-based, human
Description: (§1) In addition, strains were exposed to apical media from Caco-2 cells basolaterally exposed to single and combinations of the various epithelial-derived cytokines. […] Media from Caco-2 cells exposed to various combinations of these cytokines had no effect on PA-I expression. […] Using both ELISA, immunofluorescence microscopy, and flow cytometry, the binding characteristics of IFNγ were determined for both whole bacteria and membrane fractions of P. aeruginosa. […] These effects were also observed with strain PAO1. […] It has been difficult to immunoprecipitate a significant quantity of this protein from PA27853, but it has been determined that this protein can also be immunoprecipitated from E. coli (FIG. 12C). Next, IFN-γ binding specificity, to whole bacterial cells, was determined, using reiterative binding studies in the presence of various gram negatie bacterial strains, including P. aeruginosa. […] Finally, in order to determine if PA-I was functionally expressed in PA27853 in the presence IFN-γ, PA27853 was inoculated onto Caco-2 cell monolayers in the presence of IFN-γ and the effect on barrier dysregulating dynamics of PA27853 against this cell line were assessed to determine if IFN-γ shifted the dynamics. […]

[4] = tested on: rhlI transcription in PAO1; test: Northern blot of rhlI gene expression in PAO1; format: cell-based, Pseudomonas aeruginosa
[5] = tested on: PA-I protein expression in PAO1; format: cell-based, Pseudomonas aeruginosa
[6] = tested on: PA-I promoter activity in reporter strain PA27853/PLL-EGFP
[7] = tested on: PA-I expression in P. aeruginosa; format: cell-based, Pseudomonas aeruginosa
[8] = tested on: PCN production in PAO1 mutant strains; format: cell-based, Pseudomonas aeruginosa
[9] = tested on: whole bacterial cells of PA27853; test: IFN-γ binding to whole bacterial cells of PA27853; set-up: species or system Pseudomonas aeruginosa
Description: as §1

[10] = molecular target: T1, OprF (Pseudomonas aeruginosa, UniProt P13794); test: ELISA binding of IFN-γ to purified OprF; details: dose-dependent
T1 sequence (P13794 25-350): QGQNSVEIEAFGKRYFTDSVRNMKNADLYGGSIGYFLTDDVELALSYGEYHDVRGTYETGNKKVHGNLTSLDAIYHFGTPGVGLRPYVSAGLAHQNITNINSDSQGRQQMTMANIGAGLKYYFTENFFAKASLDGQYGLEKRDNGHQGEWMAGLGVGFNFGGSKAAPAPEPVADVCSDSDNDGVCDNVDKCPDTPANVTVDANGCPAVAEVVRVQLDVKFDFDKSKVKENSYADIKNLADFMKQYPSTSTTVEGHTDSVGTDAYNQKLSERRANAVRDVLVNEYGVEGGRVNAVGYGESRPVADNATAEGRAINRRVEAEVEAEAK

[11] = tested on: lecA (PA-I) mRNA in PAO1; test: Northern blot of PA-I (lecA) mRNA in PAO1; format: cell-based, Pseudomonas aeruginosa; details: for PA-I mRNA by Northern blot: PAO1, 200 ng/ml cytokine in cell culture media, 4 hours
[12] = tested on: PA-I expression in P. aeruginosa; test: PA-I expression in P. aeruginosa exposed to media containing candidate host agents; format: cell-based, Pseudomonas aeruginosa; details: P. aeruginosa in media containing adenosine, TNFα, IL-2, IL-6, IL-8 or IFNγ
From the text: FIG. 10. Exposure of P. aeruginosa to IFNγ induces PA-I expression and the expression of rhlI. For controls (lane 1, 2) bacteria are suspended in media I (Tryptic soy broth) and media II (DMEM +10% FBS ). Lane 3, 4 are MRNA levels from bacteria exposed to IFNγ and TNFα in DMEM.
In addition, strains were exposed to apical media from Caco-2 cells basolaterally exposed to single and combinations of the various epithelial-derived cytokines. […] Media from Caco-2 cells exposed to various combinations of these cytokines had no effect on PA-I expression. […] Using both ELISA, immunofluorescence microscopy, and flow cytometry, the binding characteristics of IFNγ were determined for both whole bacteria and membrane fractions of P. aeruginosa. […] These effects were also observed with strain PAO1. […] It has been difficult to immunoprecipitate a significant quantity of this protein from PA27853, but it has been determined that this protein can also be immunoprecipitated from E. coli (FIG. 12C). Next, IFN-γ binding specificity, to whole bacterial cells, was determined, using reiterative binding studies in the presence of various gram negatie bacterial strains, including P. aeruginosa. […]

[13] = tested on: pyocyanin (PCN) production in P. aeruginosa PAO1; format: cell-based, Pseudomonas aeruginosa
[14] = tested on: whole cells of P. aeruginosa (strain PAO1); test: IFN-γ binding to whole cells of P. aeruginosa PAO1 (ELISA, immunofluorescence); set-up: species or system Pseudomonas aeruginosa
Description: IFN-γ direct binding to a protein on the surface of P. aeruginosa, in the course of virulence activation, was also investigated. ELISA binding assays were performed by first coating microtiter plates with P. aeruginosa (strain PAO1), then adding recombinant human IFN-γ (rH IFN-γ), followed by biotin-labeled anti-IFN-γ antibody. IFN-γ avidly bound to whole fixed cells of P. aeruginosa in a dose-dependent manner (FIG. 25A). The ELISA data were confirmed by the results of immunofluorescent imaging of bacterial cells exposed to IFN-γ followed by biotin-labeled anti-IFN-γ antibody and Alexa 594-labeled streptavidin. The vast majority of bacterial cells (73%±3.2% vs. 8.5%±2.5%) bound IFN-γ (FIG. 25B, FIG. 27). The binding capacity of the IFN-γ to the P. aeruginosa was affected by bacterial growth phase (FIG. 28A). In order to localize the binding site of IFN-γ to P. aeruginosa (PAO1), equal protein concentrations of membrane and cytosol fractions of P. aeruginosa were prepared and coated onto ELISA microtiter plates. […] To determine if the observed membrane binding by IFN-γ was protein dependent, membrane fractions were treated with proteinase K for 3 hours and IFN-γ binding assessed.

[15] = tested on: PA-I protein expression in P. aeruginosa mutant strains; test: PA-I expression in PAO1 mutant strains exposed to IFN-γ; format: cell-based, Pseudomonas aeruginosa
[16] = in vivo, iv; cited from earlier work
[17] = tested on: membrane protein fractions of P. aeruginosa; test: Morphine binding to P. aeruginosa membrane protein fractions; set-up: species or system Pseudomonas aeruginosa
[18] = tested on: PA-I expression in Pseudomonas strain PA27853; test: Quantitative RT-PCR of PA-I mRNA in PA27853 exposed to morphine; format: cell-based, Pseudomonas aeruginosa
[19] = tested on: P. aeruginosa PA27853; test: Mice with slow release morphine pellets drinking PA27853-spiked formula; format: in vivo; details: daily oral 1×10^8 cfu/ml PA27853
[20] = tested on: P. aeruginosa; format: cell-based, Pseudomonas aeruginosa
[21] = tested on: MDCK cells; format: cell-based
[22] = tested on: PA27853; test: Biofilm formation assay, PA27853; format: cell-based, Pseudomonas aeruginosa

## IFN-γ: human recombinant Interferon gamma
[1]; equal protein concentrations, ELISA
  binding to membrane versus cytosol fractions: preferentially bound to membrane fractions
[1]; proteinase K for 3 hours
  binding to membranes after proteinase K: decreased
[1]; versus wild-type PAO1, ELISA
  binding to solubilized membrane proteins of OprF knockout strains: reduced binding
[2]
  C4-HSL synthesis: increased
[3]; Caco-2, five hours of incubation
  barrier dysregulating effect of PA27853 (TEER): enhanced the barrier dysregulating effect
[3]; Caco-2, no bacteria
  TEER, IFN-γ alone: Neither media nor IFN-γ alone altered TEER
[4]
  rhlI transcription: induced
[5]
  IFN-γ concentration with the greatest increase in PA-I protein expression: 100 ng/mL
  PA-I protein: increased
[6]
  PA-I expression in reporter strain exposed to cytokines: significant increase in PA-I expression
[7]
  PA-I expression, in vitro studies: induced PA-I expression
  response to express PA-I: robust response
[8]
  PCN production induced by IFN-γ in rhlI and rhlR mutant strains: abolished
[9]
  binding to whole bacterial cells: high binding affinity
[10]
  binding to purified OprF: directly binds
[11]
  PA-I mRNA by Northern blot: Induction of PA-I mRNA was observed
[11]; early stationary phase of growth
  PA-I mRNA: increased
[12]
  PA-I expression, candidate agents alone: induced a direct effect on PA-I expression
[13]
  pyocyanin production: increased pyocyanin production
[14]; PAO1, recombinant human IFN-γ
  binding to whole fixed cells by ELISA: avidly bound
[14]; immunofluorescent imaging, versus 8.5%±2.5% control
  bacterial cells that bound IFN-γ: 73%±3.2%
[15]
  PA-I expression induced by IFN-γ in rhlI and rhlR mutant strains: abolished
[15]; 100 ng/ml of IFN-γ
  PA-I protein expression in OprF mutant strains: failed to increase the expression of the PA-I protein
[15]; plasmid pUCP24/OprF
  PA-I protein expression in strain 31899 reconstituted with OprF: recovery of their responsiveness

## CN1CC[C@]23c4c5ccc(O)c4O[C@H]2[C@@H](O)C=C[C@H]3[C@H]1C5 [morphine]
[16]
  concentration at tissue sites such as the intestinal mucosa: ≤ 100 µM
[7]
  response to express PA-I: robust response
[17]
  binding to membrane protein fractions: binds to membrane protein fractions
[18]; PA27853, physiologic concentrations of morphine (13 μM)
  PA-I expression: four-fold increase
[18]; PA27853 exposed to morphine (13 μM), quantitative RT-PCR
  increase in PA-I mRNA: 4 fold
[19]
  mice that developed severe sepsis: 4/4
  mortality: significant mortality

## CCCC(=O)N[C@H]1CCOC1=O [C4-HSL, C4-homoserine lactone]
[20]
  bacterial growth in TSB media: Neither compound had an effect
[5]
  PA-I protein expression: responds to varying doses
[7]
  PA-I expression, in vitro studies: induced PA-I expression
[8]
  PCN production in rhlR mutant strain: did not restore PCN production
  PCN production in seven additional mvfR mutants: none of these mutants produced PCN
  PCN production in ΔGacA and ΔMvfR: unable to restore PCN production
  PCN production in ΔGacA/gacA: decreased, albeit minimally
  PCN production in ΔMvfR/mvfR: further increased
  PCN response of MvfR truncation mutant 121-332: did not respond
  PCN response of MvfR truncation mutants 1-292, 1-291 and 1-283: did not respond
  PCN response of MvfR truncation mutants 1-299 and 1-293: enhanced PCN production
  dynamics of PCN production in ΔGacA/gacA: no effect on the dynamics of PCN production
  dynamics of PCN production in ΔMvfR/mvfR: shift in PCN production at lower cell densities
[11]
  PA-I mRNA by Northern blot: Induction of PA-I mRNA was observed
[13]
  onset of PCN production versus cell density: shift in the production of PCN at lower cell densities

## C=CCN1C[C@H](C)N([C@H](c2ccc(C(=O)N(CC)CC)cc2)c2cccc(O)c2)C[C@H]1C [BW373U86]
[5]
  PA-I protein: same degree as C4-HSL
[6]
  PA-I expression as judged by fluorescence of the GFP reporter strain: greatest effect on PA-I expression
[7]
  response to express PA-I: robust response
[21]
  TEER of MDCK cells following apical exposure to PA27853 plus opioid: more profound decrease in the TEER
[22]
  biofilm production: especially increased
